Numbers after ± are expanded uncertainties.
Test: xn = mol fraction of the nth substance listed
Details: 100 kPa, Liquid; for mass density: Vibrating tube method; for viscosity: Falling or rolling sphere viscometry

CC(=O)[O-].CC[N+]1(C)CCCC1 [1-ethyl-1-methylpyrrolidinium acetate] + O
Details | mass density [kg/m3] | viscosity [mPa·s]
323.15 K, x1 = 0.1008 | 1031.5 ± 1 | –
323.15 K, x1 = 0.2083 | 1050.5 ± 1 | –
323.15 K, x1 = 0.3171 | 1055.1 ± 1 | –
323.15 K, x1 = 0.4126 | 1055.7 ± 1.1 | –
323.15 K, x1 = 0.481 | 1055.3 ± 1.1 | –
323.15 K, x1 = 0.5857 | 1054.5 ± 1.2 | –
323.15 K, x1 = 0.6728 | 1053.6 ± 1.4 | –
323.15 K, x1 = 0.766 | 1052.2 ± 1.5 | –
323.15 K, x1 = 0.8963 | 1050.9 ± 1.8 | –
328.15 K, x1 = 0.1008 | 1028.3 ± 1 | 3.523 ± 0.35
328.15 K, x1 = 0.2083 | 1047.2 ± 1 | 6.81 ± 0.68
328.15 K, x1 = 0.3171 | 1051.9 ± 1 | 10 ± 1
328.15 K, x1 = 0.4126 | 1052.6 ± 1.1 | 13.5 ± 1.4
328.15 K, x1 = 0.481 | 1052.3 ± 1.1 | 15.8 ± 1.6
328.15 K, x1 = 0.5857 | 1051.6 ± 1.2 | 21.2 ± 2.1
328.15 K, x1 = 0.6728 | 1050.7 ± 1.4 | 28 ± 2.8
328.15 K, x1 = 0.766 | 1049.3 ± 1.5 | 35.2 ± 3.6
328.15 K, x1 = 0.8963 | 1048 ± 1.8 | 48 ± 4.9
333.15 K, x1 = 0.1008 | 1025.1 ± 1 | 3.21 ± 0.32
333.15 K, x1 = 0.2083 | 1043.8 ± 1 | 6.14 ± 0.62
333.15 K, x1 = 0.3171 | 1048.7 ± 1 | 8.67 ± 0.87
333.15 K, x1 = 0.4126 | 1049.5 ± 1.1 | 11.5 ± 1.2
333.15 K, x1 = 0.481 | 1049.3 ± 1.1 | 13.5 ± 1.4
333.15 K, x1 = 0.5857 | 1048.5 ± 1.2 | 18.1 ± 1.8
333.15 K, x1 = 0.6728 | 1047.7 ± 1.3 | 23.2 ± 2.3
333.15 K, x1 = 0.766 | 1046.2 ± 1.5 | 29.1 ± 2.9
333.15 K, x1 = 0.8963 | 1045 ± 1.8 | 39.5 ± 4
338.15 K, x1 = 0.1008 | 1021.8 ± 1 | 2.94 ± 0.3
338.15 K, x1 = 0.2083 | 1040.5 ± 1 | 5.49 ± 0.55
338.15 K, x1 = 0.3171 | 1045.5 ± 1 | 7.52 ± 0.76
338.15 K, x1 = 0.4126 | 1046.4 ± 1.1 | 9.88 ± 0.99
338.15 K, x1 = 0.481 | 1046.2 ± 1.1 | 11.6 ± 1.2
338.15 K, x1 = 0.5857 | 1045.6 ± 1.2 | 15.4 ± 1.6
338.15 K, x1 = 0.6728 | 1044.9 ± 1.3 | 19.8 ± 2
338.15 K, x1 = 0.766 | 1043.5 ± 1.5 | 24.6 ± 2.5
338.15 K, x1 = 0.8963 | 1042.3 ± 1.8 | 32.6 ± 3.3
343.15 K, x1 = 0.1008 | 1018.5 ± 1 | 2.65 ± 0.27
343.15 K, x1 = 0.2083 | 1037.1 ± 1 | 4.78 ± 0.48
343.15 K, x1 = 0.3171 | 1042.2 ± 1 | 6.72 ± 0.68
343.15 K, x1 = 0.4126 | 1043.3 ± 1.1 | 8.58 ± 0.86
343.15 K, x1 = 0.481 | 1043.2 ± 1.1 | 10.1 ± 1
343.15 K, x1 = 0.5857 | 1042.6 ± 1.2 | 13.1 ± 1.3
343.15 K, x1 = 0.6728 | 1041.9 ± 1.3 | 16.9 ± 1.7
343.15 K, x1 = 0.766 | 1040.5 ± 1.5 | 20.9 ± 2.1
343.15 K, x1 = 0.8963 | 1039.3 ± 1.8 | 27.2 ± 2.8
348.15 K, x1 = 0.1008 | 1015.2 ± 1.1 | 2.46 ± 0.25
348.15 K, x1 = 0.2083 | 1033.6 ± 1.1 | 4.38 ± 0.44
348.15 K, x1 = 0.3171 | 1039 ± 1 | 5.79 ± 0.58
348.15 K, x1 = 0.4126 | 1040.1 ± 1.1 | 7.52 ± 0.76
348.15 K, x1 = 0.481 | 1040.1 ± 1.1 | 8.82 ± 0.89
348.15 K, x1 = 0.5857 | 1039.7 ± 1.2 | 11.4 ± 1.1
348.15 K, x1 = 0.6728 | 1039 ± 1.3 | 14.6 ± 1.5
348.15 K, x1 = 0.766 | 1037.6 ± 1.5 | 17.3 ± 1.8
348.15 K, x1 = 0.8963 | 1036.7 ± 1.8 | 22.4 ± 2.3

— the NIST ThermoML archive (doi:10.1016/j.jct.2016.10.034)
